Laboratory results taken from ChEMBL document CHEMBL1909046, “DrugMatrix in vitro pharmacology data”.

Key:
[1] = DRUGMATRIX: beta-Lactamase enzyme inhibition (substrate: Nitrocefin); set-up: species or system Bacillus cereus; details: Not Active = under 50% inhibition at 10 µM
[2] = target: T1, C-X-C chemokine receptor type 1 (Homo sapiens, UniProt P25024); note: in other assays of this panel Not Active means under 50% inhibition at 10 µM
T1 sequence (P25024 whole entry): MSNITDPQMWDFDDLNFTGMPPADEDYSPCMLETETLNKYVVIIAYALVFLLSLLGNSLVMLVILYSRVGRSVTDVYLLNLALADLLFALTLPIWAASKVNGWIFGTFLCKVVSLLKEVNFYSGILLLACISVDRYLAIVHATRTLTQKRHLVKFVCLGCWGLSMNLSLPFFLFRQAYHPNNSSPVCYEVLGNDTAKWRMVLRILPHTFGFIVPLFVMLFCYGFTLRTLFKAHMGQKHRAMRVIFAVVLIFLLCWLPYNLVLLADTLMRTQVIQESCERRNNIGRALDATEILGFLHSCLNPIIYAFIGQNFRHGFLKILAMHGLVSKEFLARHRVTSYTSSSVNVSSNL

[3] = DRUGMATRIX: Glutamate, NMDA, Phencyclidine radioligand binding (ligand: [3H] TCP); format: cell membranes, Rattus norvegicus, Wistar, Cerebral cortex, Membrane; details: Not Active = under 50% inhibition at 10 µM
[4] = target: Beta-2 adrenergic receptor (Homo sapiens, UniProt P07550); experiment: DRUGMATRIX: Adrenergic beta2 radioligand binding (ligand: [3H] CGP-12177); format: cell membranes, Membrane; details: cho; Not Active = under 50% inhibition at 10 µM
D(3) dopamine receptor = D(3) dopamine receptor (Homo sapiens, UniProt P35462); experiment: DRUGMATRIX: Dopamine D3 radioligand binding (ligand: [3H] Spiperone); format: cell membranes, CHO, Membrane; details: cho
D(4) dopamine receptor = target: T2, D(4) dopamine receptor (Homo sapiens, UniProt P21917); experiment: DRUGMATRIX: Dopamine D4.2 radioligand binding (ligand: [3H] Spiperone); format: cell membranes, Membrane; details: cho-k1; Not Active = under 50% inhibition at 10 µM
T2 sequence (P21917 whole entry): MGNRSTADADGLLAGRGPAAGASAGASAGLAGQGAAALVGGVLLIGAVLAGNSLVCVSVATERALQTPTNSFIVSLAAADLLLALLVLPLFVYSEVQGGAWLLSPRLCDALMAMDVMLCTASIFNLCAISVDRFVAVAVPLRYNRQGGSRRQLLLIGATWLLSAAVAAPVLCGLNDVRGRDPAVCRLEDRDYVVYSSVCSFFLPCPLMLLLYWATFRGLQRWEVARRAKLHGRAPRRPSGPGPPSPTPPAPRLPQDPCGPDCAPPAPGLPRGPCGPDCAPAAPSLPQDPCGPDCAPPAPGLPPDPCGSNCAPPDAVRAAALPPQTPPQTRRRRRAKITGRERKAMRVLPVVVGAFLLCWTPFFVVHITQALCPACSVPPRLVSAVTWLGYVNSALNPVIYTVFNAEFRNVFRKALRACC

B2 bradykinin receptor = target: T3, B2 bradykinin receptor (Homo sapiens, UniProt P30411); format: cell membranes, Membrane; details: chem-1; note: in other assays of this panel Not Active means under 50% inhibition at 10 µM
T3 sequence (P30411 whole entry): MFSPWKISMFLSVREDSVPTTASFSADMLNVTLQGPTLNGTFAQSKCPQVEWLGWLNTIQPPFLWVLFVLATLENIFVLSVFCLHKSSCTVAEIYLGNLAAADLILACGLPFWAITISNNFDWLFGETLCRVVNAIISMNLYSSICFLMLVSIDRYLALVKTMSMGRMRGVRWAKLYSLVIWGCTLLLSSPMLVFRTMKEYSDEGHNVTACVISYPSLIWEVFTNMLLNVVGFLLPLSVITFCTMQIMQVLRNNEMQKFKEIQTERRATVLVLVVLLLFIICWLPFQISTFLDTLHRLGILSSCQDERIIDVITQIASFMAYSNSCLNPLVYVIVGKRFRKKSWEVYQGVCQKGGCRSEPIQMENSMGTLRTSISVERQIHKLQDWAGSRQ

Beta-2 adrenergic receptor, sequence (P07550 whole entry): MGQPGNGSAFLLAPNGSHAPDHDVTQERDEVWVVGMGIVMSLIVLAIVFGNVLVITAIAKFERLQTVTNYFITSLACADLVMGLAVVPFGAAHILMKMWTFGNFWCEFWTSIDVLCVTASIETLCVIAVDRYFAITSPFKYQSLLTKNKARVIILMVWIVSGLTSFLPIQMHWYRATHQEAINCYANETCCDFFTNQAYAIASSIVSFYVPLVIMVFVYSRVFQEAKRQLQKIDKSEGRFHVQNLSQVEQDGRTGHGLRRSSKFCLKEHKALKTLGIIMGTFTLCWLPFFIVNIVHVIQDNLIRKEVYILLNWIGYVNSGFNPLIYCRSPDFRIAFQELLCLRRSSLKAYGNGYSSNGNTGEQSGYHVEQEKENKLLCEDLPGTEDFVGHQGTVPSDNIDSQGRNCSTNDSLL
D(3) dopamine receptor, sequence (P35462 whole entry): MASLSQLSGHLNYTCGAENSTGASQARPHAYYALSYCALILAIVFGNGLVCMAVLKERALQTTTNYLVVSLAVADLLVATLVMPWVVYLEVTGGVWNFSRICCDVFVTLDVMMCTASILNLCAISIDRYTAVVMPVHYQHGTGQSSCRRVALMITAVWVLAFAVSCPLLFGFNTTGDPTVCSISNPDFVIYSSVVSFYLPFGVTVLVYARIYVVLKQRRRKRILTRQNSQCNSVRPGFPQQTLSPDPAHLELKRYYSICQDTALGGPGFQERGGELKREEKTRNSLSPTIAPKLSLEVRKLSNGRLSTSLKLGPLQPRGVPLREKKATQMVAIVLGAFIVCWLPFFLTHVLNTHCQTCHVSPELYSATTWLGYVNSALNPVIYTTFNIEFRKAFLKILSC

O=C(O)Cc1ccccc1Nc1c(Cl)cccc1Cl [DICLOFENAC]
Not Active: IC50 [1] | Ki [1] | IC50 [2] | IC50 [3] | Ki [3] | IC50 [4] | IC50 (D(3) dopamine receptor) | IC50 (D(4) dopamine receptor) | IC50 (B2 bradykinin receptor)

C[C@H]1O[C@@H](O[C@H]2[C@@H](O)C[C@H](O[C@H]3[C@@H](O)C[C@H](O[C@H]4CC[C@@]5(C)[C@H](CC[C@@H]6[C@@H]5CC[C@]5(C)[C@@H](C7=CC(=O)OC7)CC[C@]65O)C4)O[C@@H]3C)O[C@@H]2C)C[C@H](O)[C@@H]1O [DIGITOXIN]
Not Active: IC50 [1] | Ki [1] | IC50 [2] | IC50 [3] | Ki [3] | IC50 [4] | IC50 (D(3) dopamine receptor) | IC50 (D(4) dopamine receptor) | IC50 (B2 bradykinin receptor)

CCN1CC(CCN2CCOCC2)C(c2ccccc2)(c2ccccc2)C1=O (configuration not stated) [DOXAPRAM]
Not Active: IC50 [1] | Ki [1] | IC50 [2] | IC50 [3] | Ki [3] | IC50 [4] | IC50 (D(3) dopamine receptor) | IC50 (D(4) dopamine receptor) | IC50 (B2 bradykinin receptor)

Cn1c(=O)c2c(ncn2CC2OCCO2)n(C)c1=O [DOXOFYLLINE]
Not Active: IC50 [1] | Ki [1] | IC50 [2] | IC50 [3] | Ki [3] | IC50 [4] | IC50 (D(3) dopamine receptor) | IC50 (D(4) dopamine receptor) | IC50 (B2 bradykinin receptor)

COc1cccc2c1C(=O)c1c(O)c3c(c(O)c1C2=O)C[C@@](O)(C(=O)CO)C[C@@H]3O[C@H]1C[C@H](N)[C@H](O)[C@H](C)O1 [DOXORUBICIN]
Not Active: IC50 [1] | Ki [1] | IC50 [2] | IC50 [3] | Ki [3] | IC50 [4] | IC50 (D(3) dopamine receptor) | IC50 (D(4) dopamine receptor) | IC50 (B2 bradykinin receptor)

COc1cccc2c1C(=O)c1c(O)c3c(c(O)c1C2=O)C[C@@](O)(C(=O)CO)C[C@@H]3O[C@H]1C[C@H](N)[C@@H](O)[C@H](C)O1 [EPIRUBICIN]
Not Active: IC50 [1] | Ki [1] | IC50 [2] | IC50 [3] | Ki [3] | IC50 [4] | IC50 (D(3) dopamine receptor) | IC50 (D(4) dopamine receptor) | IC50 (B2 bradykinin receptor)

C[C@]12CC[C@@H]3c4ccc(OC(=O)c5ccccc5)cc4CC[C@H]3[C@@H]1CC[C@@H]2O [ESTRADIOL BENZOATE]
Not Active: IC50 [1] | Ki [1] | IC50 [2] | IC50 [3] | Ki [3] | IC50 [4] | IC50 (D(3) dopamine receptor) | IC50 (D(4) dopamine receptor) | IC50 (B2 bradykinin receptor)

C[C@]12CC[C@@H]3c4ccc(O)cc4CC[C@H]3[C@@H]1CC[C@@H]2O [ESTRADIOL]
Not Active: IC50 [1] | Ki [1] | IC50 [2] | IC50 [3] | Ki [3] | IC50 [4] | IC50 (D(3) dopamine receptor) | IC50 (D(4) dopamine receptor) | IC50 (B2 bradykinin receptor)
